Legend:
OVCAR 3 Cancer cells = assay: Nanoformulated quercetin in mice with implanted tumor; details: mouse, in vivo
Method: Animals—Immunodeficient, female athymic mice aged 5-6 weeks and weighing between 18 and 20 g were purchased from Taconic Biosciences (Albany, NY). All animal studies were conducted at the animal facility of the Veteran Affairs Medical Center, Albany, NY in accordance with and approved by institutional guidelines for humane animal treatment and according to the current guidelines. Mice were maintained under specific pathogen-free conditions and housed under controlled conditions of temperature (20-24° C.) and humidity (60-70%) and 12 h light/dark cycle with ad libitum access to water and food. Mice were allowed to acclimatize for 5 d prior to the start of study.
Treatment—OVCAR 3 Cancer cells (1×10^6) were implanted subcutaneously in right flank of each animal. In the first set of experiments, control, free Quercetin (3 mg/kg), NPS-quercetin(3 mg/kg), and FA-NPs-quercetin (3 mg/kg) were injected subcutaneously to the mice everyday (for 14 days). The control was PBS, after humane sacrifice of animals at 14 days, tumors were harvested and amount of QC was measured.

glioma cells = details: cited from earlier work
[1] = cited from earlier work

| SMILES | adverse toxic effect on the health of tumor bearing mice (OVCAR 3 Cancer cells) | angiogenesis (glioma cells) | water solubility [1] |
| --- | --- | --- | --- |
| O=c1c(O)c(-c2ccc(O)c(O)c2)oc2cc(O)cc(O)c12 [Free QC, quercetin] | does not have any adverse toxic effect | – | – |
| O=c1c(O)c(-c2ccc(O)c(O)c2)oc2cc(O)cc(O)c12 [Quercetin, quercetin] | – | suppression of angiogenesis | not water soluble |

— US12213958B2, “Compositions, methods, systems and/or kits for preventing and/or treating neoplasms” (Research Cancer Institute of America, priority 2017, dated 2025)
